The values that follow come from US10925846B2, “Phenylketone carboxylate compounds and pharmaceutical compositions for the prevention and treatment of osteoporosis” (Liminal BioSciences Limited, priority 2014, dated 2021).

Data set [1] has as its system LPS-stimulated RAW264.7 cells. Description: IL-12 production in LPS-stimulated RAW264.7 cells (IL-12 ELISA). The class given is cell-based, murine. On the procedure:
Accordingly, RAW264.7 cells are cultured with 100 ng/mL of LPS in presence or absence of the compound(s) for 21 h in a humidified atmosphere of 95% air-5% carbon dioxide at 37° C. IL-12 concentration in the culture medium is measured using the IL-12 ELISA according to the manufacturer (BD Biosciences) recommendations. […] Accordingly, an in vitro IL-12 production assay was used for screening potential inhibitors of osteoclastogenesis.

In data set [2] the test system is ovariectomized (OVX) rats. Description: Ovariectomized-rat model of osteoporosis. The class given is in vivo, Sprague Dawley rats. An excerpt:
Although in comparison to humans, the skeletal mass of rats remains stable for a protracted period during their lifespan, rats can be ovariectomized to make them sex-hormone deficient, and to stimulate the accelerated loss of bone that occurs in women following menopause. Ovariectomy induced bone loss in the rat and postmenopausal bone loss share many similar characteristics. These include: increased rate of bone turnover with resorption exceeding formation; an initial rapid phase of bone loss followed by a much slower phase; greater loss of cancellous than cortical bone; decreased intestinal absorption of calcium; some protection against bone loss by obesity; and similar skeletal response to therapy with estrogen, tamoxifen, bisphosphonates, parathyroid hormone, calcitonin and exercise. These wide-ranging similarities are strong evidence that the ovariectomized rat bone loss model is suitable for studying problems that are relevant to postmenopausal bone loss.
Sprague Dawley rats (250 g) were ovariectomized (OVX) at day 0. Rats were treated by oral gavage with Compound I (10 mg/kg) from day 14 to day 68. Evaluation of different parameters (body weight, calcium loss, osteoclast markers (RANKL and TRAP mRNA expression), collagen content and histology was performed at day 68.

Data set [3] deals with RAW264.7 cells. The note with it: cited from earlier work.
Setting [4] is: compound concentration 0.020 mM.

SMILES strings stand for the structures.

With `CCCCCCCCC(Oc1ccc(C(=O)CCCCCCC)cc1)C(=O)[O-].[Na+]` (racemic) [Compound I, Sodium (RS)-2-[4-Octanoylphenoxy]decanoate], in data set [1] (compound concentration 0.0075 mM), the IL-12 is recorded as 112 pg/mL. Also, in data set [2] (10 mg/kg oral gavage day 14 to day 68, FIG. 1), the “body weight / ovariectomized-induced obesity” value was “reduced ovariectomized-induced obesity”. Also, the “calcium loss in urine” value in data set [2] (10 mg/kg oral gavage, day 28 to day 56, FIG. 2) is reported as “reduced significantly”. For the same compound, the “acid phosphatase activity in serum” value in data set [2] (10 mg/kg oral gavage, day 28 to day 56, FIG. 3) is “reduced”. The “ratio of mRNA expression of RANKL/OPG in rat tibia” value in data set [2] (10 mg/kg oral gavage, day 68, FIG. 4) is “decreased”. Further, the “collagen content in the metaphyse of the femur” value in data set [2] (10 mg/kg oral gavage, day 68, FIG. 5) is “increased”. In data set [2] (10 mg/kg oral gavage, day 68, FIGS. 6 and 7), the “bone loss in the metaphysis portion of the femur (histology)” value is listed as “reduced bone loss”.

For `CCCCCCCC(=O)c1cccc2c1CC(C(=O)[O-])C2.[Na+]` (racemic) [Compound III, Sodium (RS)-4-Octanoylindane-2-carboxylate], the IL-12 in data set [1] (compound concentration 0.1 mM) turned out to be 24.95 pg/mL.

`CCCCCCCC(=O)c1ccc(OC(CCCCCC)C(=O)[O-])cc1.[Na+]` (racemic) [Compound IV, Sodium (RS)-2-[4-Octanoylphenoxy]octanoate] had a melting point of 165 to 170 °C. Besides, the IL-12 in data set [1] (setting [4]) stood at 12.13 pg/mL.

The compound `CCCCCCCCC(Oc1ccc(C(=O)CCC)cc1)C(=O)[O-].[Na+]` (racemic) [Compound V, Sodium (RS)-2-[4-Butyrylphenoxy]decanoate] gave a melting point of 262 to 278 °C. Also, the IL-12 in data set [1] (compound concentration 0.040 mM) is 73.32 pg/mL.

`CCCCCCCCC(Oc1ccc(C(=O)CCCCC)cc1)C(=O)[O-].[Na+]` (racemic) [Compound VI, Sodium (RS)-2-[4-Hexanoylphenoxy]decanoate] showed a melting point of 275 to 280 °C. For the same compound, in data set [1] (setting [4]), the IL-12 was determined as 53.5 pg/mL.

Compound `CCCCCCCCC(Cc1ccc(C(=O)CCCCCCC)cc1)C(=O)[O-].[Na+]` (racemic) [Compound VII, Sodium (RS)-2-[4-Octanoylbenzyl]decanoate] registered an IL-12 in data set [1] (compound concentration 0.012 mM) of 8 pg/mL.

With `CCCCCCCCCC(=O)O` [capric acid], in data set [3] (LPS-stimulated RAW264.7 cells), the IL-12 production result is “increases”. In data set [3] (LPS), the “LPS-upregulated iNOS mRNA levels and nitric oxide (NO) production” value is given as “inhibited”. In data set [3] (RAW264.7 cells), the “phosphatase (TRAP)-positive cells (osteoclast differentiation marker)” value is listed as “reduction”. Moreover, in data set [3], the “monocyte chemoattractant protein-1 (MCP-1) mRNA expression” value is “inhibited”.

The melting point is the temperature of the solid-liquid transition.
